Earlier results, collected in paper PMC12930396, “Positive modulators of N-methyl-D-aspartate receptor: structure–activity relationship study on steroidal C-17 and C-20 oxime ethers” (RSC Advances, 2026).

Target: T1, GluN1/GluN2B receptors (Rattus norvegicus, UniProt P35439+Q00960)
T1 construct: expressed in transfected cells; host or cells: HEK293 cells (ATCC No. CRL-1573)
Design: method as in PMID 29708744
Conditions: reference compound PES; cited from earlier work

T1 sequence (Q00960 27-1482, other chains not shown): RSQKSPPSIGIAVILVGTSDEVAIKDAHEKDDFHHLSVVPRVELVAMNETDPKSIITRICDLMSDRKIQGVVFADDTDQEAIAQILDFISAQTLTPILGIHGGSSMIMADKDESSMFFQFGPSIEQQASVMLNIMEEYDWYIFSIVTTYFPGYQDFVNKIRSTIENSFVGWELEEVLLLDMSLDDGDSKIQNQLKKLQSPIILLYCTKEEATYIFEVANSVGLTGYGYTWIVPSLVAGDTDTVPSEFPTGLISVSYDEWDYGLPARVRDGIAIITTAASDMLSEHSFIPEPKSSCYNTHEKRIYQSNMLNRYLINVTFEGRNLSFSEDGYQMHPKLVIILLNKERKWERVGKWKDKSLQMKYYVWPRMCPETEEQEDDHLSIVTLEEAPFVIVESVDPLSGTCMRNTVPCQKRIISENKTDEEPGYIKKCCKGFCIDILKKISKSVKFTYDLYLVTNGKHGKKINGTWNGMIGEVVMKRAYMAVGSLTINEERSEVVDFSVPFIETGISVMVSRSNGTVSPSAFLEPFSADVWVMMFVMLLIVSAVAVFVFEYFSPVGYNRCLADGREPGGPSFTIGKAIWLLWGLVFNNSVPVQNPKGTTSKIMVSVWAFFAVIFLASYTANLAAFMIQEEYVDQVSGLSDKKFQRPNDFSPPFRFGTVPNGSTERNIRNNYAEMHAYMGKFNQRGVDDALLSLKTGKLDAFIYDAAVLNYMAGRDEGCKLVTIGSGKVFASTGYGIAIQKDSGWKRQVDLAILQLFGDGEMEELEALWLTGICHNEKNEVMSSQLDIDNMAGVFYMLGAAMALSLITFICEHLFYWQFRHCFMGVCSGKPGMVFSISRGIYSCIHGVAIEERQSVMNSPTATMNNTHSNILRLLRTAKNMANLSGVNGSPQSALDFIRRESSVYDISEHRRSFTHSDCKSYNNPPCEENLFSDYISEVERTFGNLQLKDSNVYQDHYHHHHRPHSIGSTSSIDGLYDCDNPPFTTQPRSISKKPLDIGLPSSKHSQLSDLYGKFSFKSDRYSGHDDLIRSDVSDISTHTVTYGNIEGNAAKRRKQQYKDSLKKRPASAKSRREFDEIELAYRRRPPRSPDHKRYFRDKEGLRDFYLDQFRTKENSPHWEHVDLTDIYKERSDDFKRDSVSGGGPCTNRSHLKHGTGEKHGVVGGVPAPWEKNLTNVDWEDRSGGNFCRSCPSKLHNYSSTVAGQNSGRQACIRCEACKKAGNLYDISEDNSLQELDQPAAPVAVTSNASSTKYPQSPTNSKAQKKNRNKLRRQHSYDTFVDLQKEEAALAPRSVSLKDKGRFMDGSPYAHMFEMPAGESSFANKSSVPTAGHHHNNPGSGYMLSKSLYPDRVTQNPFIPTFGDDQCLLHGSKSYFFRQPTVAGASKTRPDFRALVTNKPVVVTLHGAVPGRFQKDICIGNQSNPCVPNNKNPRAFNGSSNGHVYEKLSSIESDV

Substance: 20-oxo-pregn-5-en-3β-yl sulfate [PES]
- E max ± SEM: 116 ± 10%
- h ± SEM (apparent Hill coefficient): 1.5 ± 0.1
